The target in one series is T1, Galanin GAL1 (Homo sapiens, UniProt P47211).
T1 construct: expressed in transfected cells; host or cells: HEK-293
T1 sequence (P47211 1-349): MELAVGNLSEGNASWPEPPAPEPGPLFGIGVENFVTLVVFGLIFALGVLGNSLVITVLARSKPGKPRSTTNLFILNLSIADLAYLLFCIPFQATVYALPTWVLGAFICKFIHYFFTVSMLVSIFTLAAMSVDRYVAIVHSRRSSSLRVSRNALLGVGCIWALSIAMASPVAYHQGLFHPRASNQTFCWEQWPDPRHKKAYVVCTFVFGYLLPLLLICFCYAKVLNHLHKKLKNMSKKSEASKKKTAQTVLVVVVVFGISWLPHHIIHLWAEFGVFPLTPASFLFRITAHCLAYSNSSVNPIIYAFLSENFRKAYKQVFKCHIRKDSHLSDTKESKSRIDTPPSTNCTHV
Briefly: Galanin radioligand binding competitive assay, GAL1 (125I galanin porcine, recombinant HEK-293 cells). Conditions: 0.012 nM 125I Galanin (porcine), human recombinant HEK-293; for inhibition at 0.01 µM: 10 nM peptide, read-out: GAL1 % inhib at 10 nM; for inhibition at 0.1 µM: 100 nM peptide, read-out: GAL1 % inhib at 100 nM. How it is done: (§1) Galanin(1-16) Linear Reference Peptide 231, Galanin(1-16) Analog Incorporating (R)-Helix Pentapeptide Mimetic A 232a and Galanin(1-16) Analog Incorporating (S)-Helix Pentapeptide Mimetic A 232b were tested for binding affinity to the Galanin-1 and Galanin-2 receptors using a radioligand binding competitive assay (Heuillet E, Bouaiche Z, Menager J, Dugay P, Munoz N, Dubois H, Amiranoff B, Crespo A, Lavayre J, Blanchard J C, Doble A; Eur J. Pharmacol., 1994, 269, 139-147. Bloomquist B T, Beauchamp M R, Zhelnin L, Brown S E, Biochem Biophys Res Comm., 1998, 243, 474-479.) Human recombinant HEK-293 cells were used as the source of Galanin GAL1, and samples tested against competitive binding with 0.012 nM ^125I Galanin (porcine). DMSO was used as the vehicle, and the incubation buffer consisted of 10 mM HEPES-NaOH, pH 7.4, 1 mM EDTA, 0.5% BSA, 0.01% Bacitracin. Human recombinant CHO-K1 cells were used as the source of Galanin GAL2, and samples tested against competitive binding with 0.02 nM ^125I Galanin (human).

Another series deals with T2, Galanin GAL2 (Homo sapiens, UniProt O43603).
T2 construct: expressed in transfected cells; host or cells: CHO-K1
T2 sequence (O43603 1-387): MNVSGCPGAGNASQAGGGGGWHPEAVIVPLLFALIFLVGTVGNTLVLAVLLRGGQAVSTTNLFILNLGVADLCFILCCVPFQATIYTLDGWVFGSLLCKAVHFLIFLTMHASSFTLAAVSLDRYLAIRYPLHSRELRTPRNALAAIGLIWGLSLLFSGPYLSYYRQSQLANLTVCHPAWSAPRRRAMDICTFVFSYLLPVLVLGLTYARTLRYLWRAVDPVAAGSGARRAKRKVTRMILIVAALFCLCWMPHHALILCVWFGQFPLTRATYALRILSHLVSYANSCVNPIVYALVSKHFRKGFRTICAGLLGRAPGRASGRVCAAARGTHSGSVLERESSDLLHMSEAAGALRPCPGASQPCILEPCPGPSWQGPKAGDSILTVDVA
Description: Galanin radioligand binding competitive assay, GAL2 (125I galanin human, recombinant CHO-K1 cells). Conditions: 0.02 nM 125I Galanin (human); for inhibition at 0.1 µM: 100 nM peptide, read-out: GAL2 % inhib at 100 nM; for inhibition at 1 µM: 1 1000 nM peptide (so in the source), read-out: GAL2 % inhib at 1 1000 nM. How it is done: as §1

Series [1] can be described thus: Rat plasma stability of galanin peptides (LC/MS). Conditions: for remaining at 2 min, 500 ng/mL / remaining at 4 h, 500 ng/mL: male, Sprague Dawley. The format is in vitro ADME. The method, then: Rat plasma was obtained freshly from male Sprague Dawley rats. The stock solutions for the samples Galanin(1-16) Linear Reference Peptide 231, Galanin(1-16) Analog Incorporating (R)-Helix Pentapeptide Mimetic A 232a and Galanin(1-16) Analog Incorporating (S)-Helix Pentapeptide Mimetic A 232b were prepared in 1:1 v:v acetonitrile/water at a concentration of 1 mg/mL. This stock solution was further diluted using 1:1 v:v acetonitrile/water to give a spiking solution with a nominal concentration of 50 μg/mL. For each compound, an aliquot (1485 μL) of rat plasma (maintained at 37° C.) was spiked with 15 μL of the spiking stock to give a nominal plasma concentration of 500 ng/mL. […] Samples were quenched by snap freezing in dry-ice. The concentration of the parent compound (Gal 231, Gal R 232a, Gal S 232b) was determined by LC/MS on a Micromass Quattro Premier triple-quadrupole instrument. The percentage of the parent compound remaining at each time point was calculated relative to the concentrations observed in the spiking control samples.

Series [2] is described as follows: Variable temperature CD, thermal denaturation of secondary structure. In kind it is physicochemical. The method, then:
CD experiments were performed on a Jasco Model J-810 spectropolarimeter, which was routinely calibrated with (1S)-(+)-10-camphorsulfonic acid at a concentration of 0.06% (w/v). Experiments were performed at 25° C. using a 0.1 cm cell, a scan speed of 10 nm/min from 260 to 180 nm, with a resolution of 1 nm and a response time of 0.25 s. The spectra were averaged over 5 scans, baseline subtracted from the corresponding blank conditions, and smoothed using the Savitsky-Golay smoothing algorithm (Savitsky, A. and Golay, M. J. E., 1964, Anal. Chem, 36, 1627-1639) to reduce noise. The samples were dissolved in 10 mM phosphate buffer, measured as pH 7.4, and when required the appropriate volume of TFE was added to adjust to 30% TFE. The concentration of the samples of peptides incorporating Helix Mimetic A (galanin 1-16 analogs) were determined using the Beer-Lambert Law by measuring the absorbance of the samples at 280 nm and using a molar extinction co-efficient of ε280=6620 M^−1cm^−1 (ε280 of Galanin 1-30, contains same number of Trp and Tyr as Galanin 1-16). The concentration of the samples of peptides incorporating Helix Mimetic B (Temporin A analogs) samples and the pentapeptide 13-membered ring Helix Mimetic A and B samples were determined by quantitative RP-HPLC against a standard of known concentration. All samples were between 40-200 μM, and CD spectra were recorded at a range of concentrations to check that sample aggregation was not occurring. Raw CD data was recorded in raw ellipticity units and converted to mean ellipticity per mole using the equation [θ]=θ/(10×c×l), where c is the sample concentration (M) and l is the cell path length (cm). Data was not converted to mean peptide molar ellipticity per residue as for compounds containing the covalent ethyl-bridge hydrogen bond replacement it is unclear how many “natural” peptide units to count in these calculations. Variable temperature CD experiments were carried using a CDF-426/L Peltier type CD/Fluorescence simultaneous measurement attachment, and samples were equilibrated for 10 min once the desired temperature was reached.
CD spectroscopy (as outlined in Example K) was conducted on the Galanin(1-16) reference linear peptide 231 and the Galanin(1-16) helix mimetics 232a and 232b in 10 mM phosphate buffer (pH 7.4) and in 10 mM phosphate buffer with 30% TFE added (see FIG. 8). […] The CD spectra of […] in both buffer and buffer with TFE. […] Further CD experiments examined the thermal denaturation secondary structure stability of Gal(1-16) 231 and (S)-Gal(1-16) helix mimetic 232b were investigated by thermal denaturation experiments (FIG. 9). […]

The mark [3] stands for this setting: pH 7.4, 30% TFE in phosphate buffer, 5-75° C.

Where two headings read alike, the source gives them in different places.

As to `CC(C)C[C@@H]1NC(=O)[C@H](Cc2ccc(O)cc2)N[C@@H](CNC(=O)[C@H](C)NC(=O)[C@H](CO)NC(=O)[C@H](CC(N)=O)NC(=O)[C@H](CC(C)C)NC(=O)[C@@H](NC(=O)[C@H](Cc2c[nH]c3ccccc23)NC(=O)CN)[C@@H](C)O)CCN(CC(=O)N2CCC[C@H]2C(=O)N[C@@H](CC2C=NC=N2)C(=O)N[C@@H](C)C(=O)N[C@H](C(N)=O)C(C)C)C(=O)[C@H](CC(C)C)NC1=O` (some centres unmarked) [Gal R 232a], on Galanin GAL1, the inhibition at 0.01 µM came to 8% and the inhibition at 0.1 µM stood at 37%. Besides, on Galanin GAL2, the inhibition at 0.1 µM was found to be 6% and the inhibition at 1 µM came out at 36%. Also, the “Time after spiking until concentration is below the limit of quantitation” value in series [1] is on record as no more than 30 min. The compound also showed a share remaining at 2 min, 500 ng/mL in series [1] (rat, plasma) of 50%. Further, in series [1] (rat, plasma, 4 h), the “% Compound remaining at 4° C.” value is on record as 31.3% and the “Percent remaining at end of 240 min incubation compared with 10 (linear Gal(1-16))” value is reported as “significantly higher”.

In the case of `CC(C)C[C@@H]1NC(=O)[C@H](Cc2ccc(O)cc2)N[C@H](CNC(=O)[C@H](C)NC(=O)[C@H](CO)NC(=O)[C@H](CC(N)=O)NC(=O)[C@H](CC(C)C)NC(=O)[C@@H](NC(=O)[C@H](Cc2c[nH]c3ccccc23)NC(=O)CN)[C@@H](C)O)CCN(CC(=O)N2CCC[C@H]2C(=O)N[C@@H](CC2C=NC=N2)C(=O)N[C@@H](C)C(=O)N[C@H](C(N)=O)C(C)C)C(=O)[C@H](CC(C)C)NC1=O` (some centres unmarked) [Gal S 232b], at Galanin GAL1, the inhibition at 0.01 µM came out at 2% and the inhibition at 0.1 µM was 18%. Moreover, at Galanin GAL2, the inhibition at 0.1 µM turned out to be 2% and the inhibition at 1 µM stood at 6%. Further, the “Time after spiking until concentration is below the limit of quantitation” value in series [1] is given as no more than 30 min. In series [1] (rat, plasma), this compound came in with a fraction remaining at 2 min, 500 ng/mL of 44.8% and a fraction remaining at 4 h, 500 ng/mL of 31.3%. Also, the “Percent remaining at end of 240 min incubation compared with 10 (linear Gal(1-16))” value in series [1] (rat, plasma, 4 h) is listed as “significantly higher”. For the same compound, the “Thermal stability of secondary structure (variable temperature CD)” value (“Thermal stability of secondary structure” for short) in series [2] (pH 7.4) is on record as “excellent structural stability at elevated temperatures”.

`CC[C@H](C)[C@H](NC(=O)[C@H](CC(C)C)NC(=O)C1CCCN1C(=O)[C@H](CC(C)C)NC(=O)[C@@H](N)Cc1ccccc1)C(=O)NCC(=O)N[C@@H](CCCNC(=N)N)C(=O)NCC(=O)N[C@@H](CC(C)C)C(=O)N[C@@H](CO)C(=O)NCC(=O)N[C@@H](CC(C)C)C(=O)N[C@@H](CC(C)C)C(N)=O` (some centres unmarked) [Compound 234, FLPLIGRGLSGLL-NH2, reference compound]: the “Thermal stability of secondary structure” value in series [2] (setting [3]) was “increase in 222 nm absorbance as temperature increases, indicative of the helix unwinding”.

As for `CC(C)C[C@H](NC(=O)[C@H](CC(C)C)NC(=O)[C@H](Cc1ccc(O)cc1)NC(=O)CNC(=O)[C@H](C)NC(=O)[C@H](CO)NC(=O)[C@H](CC(N)=O)NC(=O)[C@H](CC(C)C)NC(=O)[C@@H](NC(=O)[C@H](Cc1c[nH]c2ccccc12)NC(=O)CN)[C@@H](C)O)C(=O)NCC(=O)N1CCC[C@H]1C(=O)N[C@@H](CC1C=NC=N1)C(=O)N[C@@H](C)C(=O)N[C@H](C(N)=O)C(C)C` (some centres unmarked) [Gal (1-16) 231, GWTLNSAGYLLGPHAV-NH2, reference compound], on Galanin GAL1, the inhibition at 0.01 µM came to 85% and the inhibition at 0.1 µM was found to be 96%. Moreover, on Galanin GAL2, the inhibition at 0.1 µM was 92% and the inhibition at 1 µM is 101%. Also, in series [1] (rat plasma, 4° C., 240 min, read-out: % Compound remaining at 4° C.), the amount remaining at 4 h, 500 ng/mL worked out at 6.2%. Besides, the amount remaining at 2 min, 500 ng/mL in series [1] (rat plasma, 37° C., 2 min, nominal 500 ng/mL, read-out: % Compound remaining at 37° C.) came out at 30.2%. Moreover, in series [2] (setting [3]), the “Thermal stability of secondary structure” value is listed as “decreased peptide secondary structure with increased temperature”.

For the compound `CC[C@H](C)[C@H](NC(=O)[C@H](CC(C)C)NC(=O)C1CCCN1C(=O)[C@H](CC(C)C)NC(=O)[C@@H](N)Cc1ccccc1)C(=O)NCC(=O)N[C@@H](CCCNC(=N)N)C(=O)NC[C@@H]1CCN([C@@H](CC(C)C)C(=O)N[C@@H](CC(C)C)C(N)=O)C(=O)CNC(=O)[C@H](CO)NC(=O)[C@H](CC(C)C)N1` (some centres unmarked) [Compound 235b], the “Thermal stability of secondary structure” value in series [2] (pH 7.4) is reported as “remarkable thermal stability”.

(Values after patent publication US20090275727A1, “Peptide turn mimetics” (MIMETICA PTY LIMITED, priority 1998, published 2009).)
